According to US20110098288A1, “SULFONAMIDES AS ZAP-70 INHIBITORS” (priority 2008, published 2011):

Tests used:
ZAP-70 = target: T1, ZAP-70 (Homo sapiens, UniProt P43403); experiment: ZAP-70 kinobeads assay; type: binding; conditions: competition with immobilized aminopyrido-pyrimidine ligand 24 in cell lysate; ZAP-70 detected by dot blot
T1 construct: endogenous in cells; host or cells: cell lysate
T1 sequence (P43403 1-619): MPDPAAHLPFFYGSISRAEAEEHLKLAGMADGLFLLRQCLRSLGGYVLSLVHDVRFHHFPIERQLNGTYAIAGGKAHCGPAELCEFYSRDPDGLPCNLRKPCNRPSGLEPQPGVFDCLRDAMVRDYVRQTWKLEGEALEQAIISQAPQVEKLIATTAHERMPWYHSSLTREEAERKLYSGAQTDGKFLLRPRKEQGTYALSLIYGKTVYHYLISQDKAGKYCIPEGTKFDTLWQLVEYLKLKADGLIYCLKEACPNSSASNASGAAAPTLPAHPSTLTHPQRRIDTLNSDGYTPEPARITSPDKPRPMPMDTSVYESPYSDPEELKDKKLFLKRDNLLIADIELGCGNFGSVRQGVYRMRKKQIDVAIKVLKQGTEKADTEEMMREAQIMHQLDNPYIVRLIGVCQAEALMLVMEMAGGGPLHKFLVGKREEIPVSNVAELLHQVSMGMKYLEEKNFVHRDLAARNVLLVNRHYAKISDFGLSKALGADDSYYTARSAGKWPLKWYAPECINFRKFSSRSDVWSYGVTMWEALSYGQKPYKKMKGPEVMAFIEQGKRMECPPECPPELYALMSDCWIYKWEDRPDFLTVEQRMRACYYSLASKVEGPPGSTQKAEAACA
Summary of the method: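 Cell lysate aliquots incubated with test compounds at various concentrations plus affinity beads carrying immobilized aminopyrido-pyrimidine ligand 24. Bead-captured proteins eluted; ZAP-70 quantified by specific antibody dot blot with infrared detection.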

Jurkat cells = experiment: Calcium release assay (Fluo-4 flow cytometry after anti-CD3 stimulation); type: cell-based; conditions: Homo sapiens, Jurkat cell line J77, anti-CD3 activation, read-out: IC50 (Calcium ion release in cells)
Procedure: Compounds of the present invention were tested in a Calcium release assay as described below.
The development of fluorescent probes makes it possible to measure the concentration of intracellular free Calcium ions in single living cells. Cells are first loaded with a cell-permeable Ca^2+-sensitive dye, then the test compound is added. Finally, cells are activated through the T cell receptor with an anti-CD3 antibody shortly before data acquisition on the flow cytometer. The release of Ca^2+ is measured as a function of time after cell stimulation. This protocol describes the flow cytometry method using the Fluo-3 and Fluo-4 dyes (Minta et al., 1989, J. Biol. Chem. 264(14):8171-8178) to measure the intracellular Ca^2+ concentration in Jurkat cells (see also June et al., 1997, Measurement of intracellular calcium ions by flow cytometry. In: Current Protocols in Cytometry (1997) Unit 9.8.1-9.8.19, John Wiley & Sons, Inc.).
In general, cells should be handled in the shortest time possible to assure their stability. Therefore the preparation of all materials in advance is highly recommended as well as using any incubation or centrifugation time to prepare the next steps (e.g. preparing compound dilution or starting the flow cytometer).
1) Prepare a work plan indicating the number of samples to be analyzed including controls. 2) Cell harvest: Centrifuge 50 to 100 ml of a Jurkat cell culture for 5 minutes at 1100 rpm. Discard the supernatant, pool the resuspended cell pellets in a single 50 ml Falcon tube, and fill up to 50 ml with PBS—CaCl2 (without FCS). Centrifuge again sample again. 3) Resuspend cell pellet with PBS—CaCl2 (without FCS) to achieve a concentration not lower than 10×10^6 cells/ml. Prepare an adequate dilution to evaluate the cell concentration and count the cells. 4) Separate the volume of cells needed to be loaded (for example […] for 20 samples) in a 50 ml Falcon tube. Fill up with PBS—CaCl2 to 900 μl for 107 cells. 5) Prepare in the dark a 1:1 mix of FLUO-4 (1 mM)+Pluronic F-127 (20%). 5 μl of Fluo-4 are needed per 107 cells. 6) Prepare a 1/10 dilution of this mix with PBS—CaCl2 (in the dark; for example 5 μl Fluo-4+5 μl F-127 completed to 100 μl). 7) Add the dye solution to the cells. […] 8) Incubate the sample for 30 minutes in a cell incubator (37° C., 5% CO2). Mix from time to time. 9) During this time prepare the adequate test compound dilution in PBS—CaCl2 (with 10% FCS). The solution should be 10 times more concentrated than the desired final concentration. Vortex each dilution. Prepare also the antibody dilutions: anti-CD3 (1/200) and GAM (1/25). 10) Label FACS tubes and distribute in the corresponding tube 30 μl of the compound dilution or only buffer for the control tubes. 11) After 30 minutes of incubation wash the cells twice in PBS—CaCl2 (with 10% FCS). During the washing steps make sure that the flow cytometer is already “ON” in order to warm the laser. 12) Resuspend the cell pellet in PBS—CaCl2 (with 10% FCS) at a concentration of 1.5×10^6 cells/ml. 13) Distribute 300 μl of cell suspension into the FACS tubes and mix gently. The compound incubation is starting. Keep samples at room temperature in the dark. 14) Open the settings of the cytometer. It is advised to have a template ready which is used for all measurements. Settings of the machine should also be the same from one experiment to the other which permits to evaluate the reproducibility of the cell preparation. 15) In Setup modus control your cell preparation on the cytometer. Cells should fit in the pre-defined gates. 16) During the compound incubation time, check also that cells are responding to the anti-CD3 activation as expected. Set a timer at 8 sec. Add 6 μl of anti-CD3 dilution (0.2 μg/ml final) and mix gently. Add 1 μl of GAM dilution (0.75 μg/ml final) and mix gently. Incubate the samples in water bath at 37° C. while starting timer. After 8 seconds of incubation, acquire data at medium speed for 200 seconds. […]

Structure (SMILES)	IC50 (ZAP-70) [nM]	IC50 (Jurkat cells) [nM]
CC(=O)c1cccc(Nc2ncc(F)c(Nc3ccccc3NS(C)(=O)=O)n2)c1 [Example 14, N-(2-(2-(3-acetylphenylamino)-5-fluoropyrimidin-4-ylamino)phenyl)methanesulfonamide]	100 to 1000	100 to 1000
Cc1nc2cc(Nc3ncc(F)c(Nc4ccccc4NS(C)(=O)=O)n3)ccc2s1 [Example 18, N-(2-(5-fluoro-2-(2-methylbenzo[d]thiazol-5-ylamino)pyrimidin-4-ylamino)phenyl)methanesulfonamide]	1000 to 10000	100 to 1000
CN1C(=O)COc2cc(Nc3ncc(F)c(Nc4ccccc4NS(C)(=O)=O)n3)ccc21 [Example 25, N-(2-(5-fluoro-2-(4-methyl-3-oxo-3,4-dihydro-2H-benzo[b][1,4]oxazin-7-ylamino)pyrimidin-4-ylamino)phenyl)methanesulfonamide]	100 to 1000	100 to 1000
COc1ccc(Nc2ncc(F)c(Nc3ccccc3NS(C)(=O)=O)n2)cc1 [Example 35, N-(2-(5-fluoro-2-(4-methoxyphenylamino)pyrimidin-4-ylamino)phenyl)methanesulfonamide]	100 to 1000	100 to 1000
COc1cc(Nc2ncc(F)c(Nc3ccccc3NS(C)(=O)=O)n2)cc(OC)c1 [Example 37, N-(2-(2-(3,5-dimethoxyphenylamino)-5-fluoropyrimidin-4-ylamino)phenyl)methanesulfonamide]	100 to 1000	100 to 1000
COc1cccc(Nc2ncc(F)c(Nc3ccccc3NS(C)(=O)=O)n2)c1 [Example 38, N-(2-(5-fluoro-2-(3-methoxyphenylamino)pyrimidin-4-ylamino)phenyl)methanesulfonamide]	1000 to 10000	100 to 1000
COc1cc(Nc2ncc(F)c(Nc3ccccc3NS(=O)(=O)c3cccs3)n2)cc(OC)c1OC [Example 50, N-(2-(5-fluoro-2-(3,4,5-trimethoxyphenylamino)pyrimidin-4-ylamino)phenyl)thiopehene-2-sulfonamide]	1000 to 10000	100 to 1000
CNCCS(=O)(=O)Nc1ccccc1Nc1nc(Nc2cc(OC)c(OC)c(OC)c2)ncc1F [Example 62, N-(2-(5-fluoro-2-(3,4,5-trimethoxyphenylamino)pyrimidin-4-ylamino)phenyl)-2-(methylamino)ethanesulfonamide]	1000 to 10000	100 to 1000
CNCCS(=O)(=O)Nc1cccc(Nc2nc(Nc3cc(OC)c(OC)c(OC)c3)ncc2F)c1 [Example 64, N-(3-(5-fluoro-2-(3,4,5-trimethoxyphenylamino)pyrimidin-4-ylamino)phenyl)-2-(methylamino)ethanesulfonamide]	100 to 1000	100 to 1000
Cc1cc(C)cc(Nc2ncc(C)c(Nc3ccccc3NS(C)(=O)=O)n2)c1 [Example 67, N-(2-(2-(3,5-dimethylphenylamino)-5-methylpyrimidin-4-ylamino)phenyl)methanesulfonamide]	100 to 1000	100 to 1000
COc1cc(Nc2nccc(Nc3ccccc3NS(C)(=O)=O)n2)cc(OC)c1OC [Example 69, N-(2-(2-(3,4,5-trimethoxyphenylamino)pyrimidin-4-ylamino)phenyl)methanesulfonamide]	100 to 1000	100 to 1000
COc1cc(Nc2ncc(Br)c(Nc3ccccc3NS(C)(=O)=O)n2)cc(OC)c1OC [Example 70, N-(2-(5-bromo-2-(3,4,5-trimethoxyphenylamino)pyrimidin-4-ylamino)phenyl)methanesulfonamide]	< 100	100 to 1000
Cc1cc(C)cc(Nc2ncc(F)c(Nc3ccccc3N(C)S(C)(=O)=O)n2)c1 [Example 72, N-(2-(2-(3,5-dimethylphenylamino)-5-fluoropyrimidin-4-ylamino)phenyl)-N-methylmethanesulfonamide]	1000 to 10000	100 to 1000
CS(=O)(=O)Nc1ccccc1Nc1nc(Nc2cccc(O)c2)ncc1F [Example 76, N-(2-(5-fluoro-2-(3-hydroxyphenylamino)pyrimidin-4-ylamino)phenyl)methanesulfonamide]	100 to 1000	100 to 1000

The next lines start with the values.

IC50 (ZAP-70) [nM]	IC50 (Jurkat cells) [nM]	Structure (SMILES)
1000 to 10000	100 to 1000	CS(=O)(=O)Nc1ccccc1Nc1nc(Nc2cccc(-n3cncn3)c2)ncc1F [Example 21, N-(2-(2-(3-(1H-1,2,4-triazol-1-yl)phenylamino)-5-fluoropyrimidin-4-ylamino)phenyl)methanesulfonamide]
100 to 1000	100 to 1000	CS(=O)(=O)Nc1ccccc1Nc1nc(Nc2ccc3cn[nH]c3c2)ncc1F [Example 32, N-(2-(2-(1H-indazol-6-ylamino)-5-fluoropyrimidin-4-ylamino)phenyl)methanesulfonamide]
100 to 1000	100 to 1000	COc1ccc(Nc2ncc(F)c(Nc3ccccc3NS(C)(=O)=O)n2)cc1OC [Example 36, N-(2-(2-(3,4-dimethoxyphenylamino)-5-fluoropyrimidin-4-ylamino)phenyl)methanesulfonamide]
1000 to 10000	100 to 1000	COc1cc(Nc2ncc(F)c(Nc3ccccc3NS(=O)(=O)c3ccsc3)n2)cc(OC)c1OC [Example 49, N-(2-(5-fluoro-2-(3,4,5-trimethoxyphenylamino)pyrimidin-4-ylamino)phenyl)thiopehene-3-sulfonamide]
100 to 1000	100 to 1000	COc1cc(Nc2ncc(C)c(Nc3ccccc3NS(C)(=O)=O)n2)cc(OC)c1OC [Example 66, N-(2-(5-methyl-2-(3,4,5-trimethoxyphenylamino)pyrimidin-4-ylamino)phenyl)methanesulfonamide]
100 to 1000	100 to 1000	CS(=O)(=O)Nc1ccccc1Nc1nc(Nc2cccc(OCCN3CCOCC3)c2)ncc1F [Example 77, N-(2-(5-fluoro-2-(3-(2-morpholinoethoxy)phenylamino)pyrimidin-4-ylamino)phenyl)methanesulfonamide]
100 to 1000	< 100	CS(=O)(=O)Nc1ccccc1Nc1nc(Nc2cccc(OCCO)c2)ncc1F [Example 78, N-(2-(5-fluoro-2-(3-(2-hydroxyethoxy)phenylamino)pyrimidin-4-ylamino)phenyl)methanesulfonamide]
